pIC50: −log10 of the molar value. Where “and” joins values, the source holds several entries; their conditions need not be identical. Identical values can stand only once.
System: 324938-238-R-J1-PDC complex spheroids viability
Assay: Anticancer human tumor 324938-238-R-J1-PDC patient-derived bladder carcinoma cell line growth inhibition [CLK]
Details: for viability, T/C: stronger effect = lower value
Summary of the method: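 Patient-derived tumor cells grown as complex spheroids with HUVEC endothelial cells and mesenchymal stem cells, treated with drug combinations. Concentrations descend in half-log steps from near clinical Cmax, or from 10 microM if Cmax unknown.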

[1] = curve of first compound, second compound 0.0316 µM
[2] = curve of first compound, second compound 0.1 µM
[3] = curve of first compound, second compound 0.316 µM
[4] = curve of first compound, second compound 1 µM
[5] = curve of first compound, second compound 3.16 µM
[6] = curve of first compound, second compound 10 µM
[7] = second compound 0.0316 µM, first compound 0.0316 µM
[8] = second compound 0.0316 µM, first compound 0.1 µM
[9] = second compound 0.0316 µM, first compound 0.316 µM
[10] = second compound 0.0316 µM, first compound 1 µM
[11] = second compound 0.0316 µM, first compound 3.16 µM
[12] = second compound 0.0316 µM, first compound 10 µM
[13] = second compound 0.1 µM, first compound 0.0316 µM
[14] = second compound 0.1 µM, first compound 0.1 µM
[15] = second compound 0.1 µM, first compound 0.316 µM
[16] = second compound 0.1 µM, first compound 1 µM
[17] = second compound 0.1 µM, first compound 3.16 µM
[18] = second compound 0.1 µM, first compound 10 µM
[19] = second compound 0.316 µM, first compound 0.0316 µM
[20] = second compound 0.316 µM, first compound 0.1 µM
[21] = second compound 0.316 µM, first compound 0.316 µM
[22] = second compound 0.316 µM, first compound 1 µM
[23] = second compound 0.316 µM, first compound 3.16 µM
[24] = second compound 0.316 µM, first compound 10 µM
[25] = second compound 1 µM, first compound 0.0316 µM
[26] = second compound 1 µM, first compound 0.1 µM
[27] = second compound 1 µM, first compound 0.316 µM
[28] = second compound 1 µM, first compound 1 µM
[29] = second compound 1 µM, first compound 3.16 µM
[30] = second compound 1 µM, first compound 10 µM
[31] = second compound 3.16 µM, first compound 0.0316 µM
[32] = second compound 3.16 µM, first compound 0.1 µM
[33] = second compound 3.16 µM, first compound 0.316 µM
[34] = second compound 3.16 µM, first compound 1 µM
[35] = second compound 3.16 µM, first compound 3.16 µM
[36] = second compound 3.16 µM, first compound 10 µM
[37] = second compound 10 µM, first compound 0.0316 µM
[38] = second compound 10 µM, first compound 0.1 µM
[39] = second compound 10 µM, first compound 0.316 µM
[40] = second compound 10 µM, first compound 1 µM
[41] = second compound 10 µM, first compound 3.16 µM
[42] = second compound 10 µM, first compound 10 µM
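Further: viability read after seven days of drug exposure.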
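Wherever viability, T/C is given: 100% = DMSO vehicle control wells.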

Compound: COC1C=CCC(C)C(C)S(=O)(=O)NC(=O)c2ccc3c(c2)N(CC2CCC21)CC1(CCCc2cc(Cl)ccc21)CO3 (stereo not given) + CN1CCN(c2cc(C(=O)Nc3cc4cc(-c5cnn(C)c5)ccc4cn3)ccn2)CC1
- pIC50 [1]: 6.36
- pIC50 [2]: 6.53
- pIC50 [3]: > 7.50
- pIC50 [4]: > 7.50
- pIC50 [5]: > 7.50
- pIC50 [6]: > 7.50
- viability, T/C [7]: 86.6%
- viability, T/C [8]: 87.2%
- viability, T/C [9]: 57.6%
- viability, T/C [10]: 27.6%
- viability, T/C [11]: 17.9%
- viability, T/C [12]: 11.9%
- viability, T/C [13]: 57.9%
- viability, T/C [14]: 52.9%
- viability, T/C [15]: 50.4%
- viability, T/C [16]: 25.9%
- viability, T/C [17]: 18.4%
- viability, T/C [18]: 13.9%
- viability, T/C [19]: 26.2%
- viability, T/C [20]: 26%
- viability, T/C [21]: 23.1%
- viability, T/C [22]: 13.1%
- viability, T/C [23]: 10.5%
- viability, T/C [24]: 8.58%
- viability, T/C [25]: 1.66%
- viability, T/C [26]: 1.72%
- viability, T/C [27]: 1.35%
- viability, T/C [28]: 0.96%
- viability, T/C [29]: 0.86%
- viability, T/C [30]: 0.63%
- viability, T/C [31]: 0.44%
- viability, T/C [32]: 0.47%
- viability, T/C [33]: 0.28%
- viability, T/C [34]: 0.21%
- viability, T/C [35]: 0.22%
- viability, T/C [36]: 0.36%
- viability, T/C [37]: 0.19%
- viability, T/C [38]: 0.17%
- viability, T/C [39]: 0.21%
- viability, T/C [40]: 0.19%
- viability, T/C [41]: 0.25%
- viability, T/C [42]: 0.25%

Compound: COC1C=CCC(C)C(C)S(=O)(=O)NC(=O)c2ccc3c(c2)N(CC2CCC21)CC1(CCCc2cc(Cl)ccc21)CO3 (stereo not given)
- viability, T/C (compound 0.0316 µM): 73.8% and 71.3%
- viability, T/C (compound 0.1 µM): 78.3% and 65.3%
- viability, T/C (compound 0.316 µM): 39.4% and 28.4%
- viability, T/C (compound 1 µM): 21% and 21.4%
- viability, T/C (compound 3.16 µM): 17.9% and 14.6%
- viability, T/C (compound 10 µM): 10.5% and 7.78%
- pIC50 (curve of compound): 6.64 and 6.80

Compound: Nc1ccn(C2OC(CO)C(O)C2(F)F)c(=O)n1 (stereo not given)
- viability, T/C (compound 0.0316 µM): 27.6% and 25.4%
- viability, T/C (compound 0.1 µM): 12.5% and 15%
- viability, T/C (compound 0.316 µM): 10.8% and 12.3%
- viability, T/C (compound 1 µM): 10.8% and 13.3%
- viability, T/C (compound 3.16 µM): 8.49% and 10.3%
- viability, T/C (compound 10 µM): 6.92% and 8.69%
- pIC50 (curve of compound): > 7.50

Compound: CCc1c2c(nc3ccc(O)cc13)-c1cc3c(c(=O)n1C2)COC(=O)[C@]3(O)CC
- viability, T/C (compound 0.00316 µM): 14.5% and 16.4%
- viability, T/C (compound 0.01 µM): 10.3% and 12.2%
- viability, T/C (compound 0.0316 µM): 10.7% and 11.6%
- viability, T/C (compound 0.1 µM): 10.8% and 13.9%
- viability, T/C (compound 0.316 µM): 7.67% and 11.4%
- viability, T/C (compound 1 µM): 2.3% and 1.78%
- pIC50 (curve of compound): > 8.50

Compound: O=c1[nH]cc(F)c(=O)[nH]1 + CN1CCN(c2cc(C(=O)Nc3cc4cc(-c5cnn(C)c5)ccc4cn3)ccn2)CC1
- pIC50 [1]: 6.63
- pIC50 [2]: 7.03
- pIC50 [3]: > 7.50
- pIC50 [4]: > 7.50
- pIC50 [5]: > 7.50
- pIC50 [6]: > 7.50
- viability, T/C [7]: 74%
- viability, T/C [8]: 72.8%
- viability, T/C [9]: 42.1%
- viability, T/C [10]: 20.4%
- viability, T/C [11]: 23.9%
- viability, T/C [12]: 19.1%
- viability, T/C [13]: 61.5%
- viability, T/C [14]: 48.2%
- viability, T/C [15]: 36.4%
- viability, T/C [16]: 22.6%
- viability, T/C [17]: 18.2%
- viability, T/C [18]: 18.1%
- viability, T/C [19]: 23.1%
- viability, T/C [20]: 23.9%
- viability, T/C [21]: 20.6%
- viability, T/C [22]: 18.9%
- viability, T/C [23]: 16.8%
- viability, T/C [24]: 17%
- viability, T/C [25]: 0.71%
- viability, T/C [26]: 1.08%
- viability, T/C [27]: 0.67%
- viability, T/C [28]: 0.81%
- viability, T/C [29]: 0.77%
- viability, T/C [30]: 1.58%
- viability, T/C [31]: 0.09%
- viability, T/C [32]: 0.15%
- viability, T/C [33]: 0.1%
- viability, T/C [34]: 0.11%
- viability, T/C [35]: 0.08%
- viability, T/C [36]: 0.19%
- viability, T/C [37]: 0.07%
- viability, T/C [38]: 0.12%
- viability, T/C [39]: 0.13%
- viability, T/C [40]: 0.09%
- viability, T/C [41]: 0.1%
- viability, T/C [42]: 0.19%

Source: PubChem BioAssay AID2060621 (Molecular Pharmacology Branch, DTP, NCI, 2025)
